Results on one molecule are retold here after patent US11326207B2, “Sequencing using non-natural nucleotides” (Ultima Genomics, Inc., priority 2017, dated 2022).

Read-outs that look alike come from different tables or passages of the source.

For assay [1], the system named is Bst DNA polymerase v.2.0. Briefly: Competition assay: one base extension, capillary electrophoresis and flow cytometry (Example 6). The class given is biochemical. The method, then:
The final concentrations of various nucleotides in the mixtures were 5 micromolar (μM). […] A solution of biotinylated template (2 microliters (μL) of 100 μM) and dye-labeled primer (4 μL of 100 μM) were combined in annealing buffer (40 μL; Tris (10 millimolar (mM)), EDTA (1 mM), NaCl (100 mM)). The resulting solution was heated to 95° C. and allowed to slowly cool to room temperature. […] New England Biolabs) for five minutes. […] Next, a portion of the suspended magnetic beads (10 μL) were removed and placed in a PCR tube. A solution of nucleotides (10 μL) was added to the tube and the tube incubated for 40 seconds (s) at 50° C. The enzyme reaction was stopped with the addition of 5 μL of 50 mM EDTA. The beads were washed with 2×100 μL TET and resuspended in 20 μL TET. […] The eluant of the remaining beads was removed and 40 μL of 95:5 formamide:10 mM EDTA was added to the beads. A portion of the formamide solution (1 μL) was added to 40 μL 95:5 formamide EDTA. The solutions were examined by capillary electrophoresis (CE) on an ABI 3730 instrument and the peaks identified and quantitated by peak height. The experimental protocol is summarized schematically in FIG. 2.
A general note: Flow cytometry measures light scatter and fluorescence of single cells or particles in a stream.

Assay [2] has as its system Bst DNA polymerase v.2.0. Briefly: Flow cytometry assay: tolerance of dye-labeled dUTP* compared to dUTP analogs (Example 7). To be noted: for Tolerance: tolerance of dUTP* compared to the named dUTP^0. The class given is biochemical. As to the method:
A solution of biotinylated template (2 microliters (μL) of 100 μM) and dye-labeled primer (4 μL of 100 μM) were combined in annealing buffer (40 μL; Tris (10 millimolar (mM)), EDTA (1 mM), NaCl (100 mM)). The resulting solution was heated to 95° C. and allowed to slowly cool to room temperature. A portion of this solution (8 μL) was mixed with streptavidin-labeled magnetic beads (4 μL of Invitrogen Dynabeads™ MyOne™ Streptavidin C1, 10 milligrams/milliliter (mg/mL); washed and eluant removed) and 2× bead wash buffer (8 μL; 10 mM Tris, pH 7.5, 1 mM EDTA, 2 M NaCl, 0.01% Triton X-100). After washing with TET solution (10 mM Tris, 1 mM EDTA, 0.05% Triton X-100) the beads were treated with Bst DNA polymerase v.2.0 (8 μL of 8 units (U)/μL; New England Biolabs) for five minutes. The excess enzyme was removed by washing with TET and the beads were suspended in 1×DNA polymerase buffer solution (20 mM Tris, pH 8, 10 mM NaCl, 2 mM MgCl2, 0.01% Triton X-100). The sequence of the biotinylated template was /52 Bio//iSp18/[…] […] (SEQ ID NO: 12), where “5” is indicative of the 5′-end of the oligo, 2-Bio indicates dual biotin, and iSP18 indicates a PEG spacer. […] […] (SEQ ID NO: 13), where “5” indicates the 5′-end of the oligo and JOE indicates a fluorescent dye attached to the oligo.
Next, a portion of the suspended magnetic beads (10 μL) were removed and placed in a PCR tube. A solution of nucleotides (10 μL) was added to the tube and the tube incubated for 40 seconds (s) at 50° C. The enzyme reaction was stopped with the addition of 5 μL of 50 mM EDTA. The beads were washed with 2×100 μL TET and resuspended in 20 μL TET. A portion of the bead solution (1 μL) was added to TE (200 μL) and the beads examined for red fluorescence on a flow cytometer (BD Accuri™, APC channel). The eluant of the remaining beads was removed and 40 μL of 95:5 formamide:10 mM EDTA was added to the beads. A portion of the formamide solution (1 μL) was added to 40 μL 95:5 formamide EDTA. The solutions were examined by capillary electrophoresis (CE) on an ABI 3730 instrument and the peaks identified and quantitated by peak height. The experimental protocol is summarized schematically in FIG. 2.
Tolerance was measured at two molar fractions, […] and 0.05, for each of the four dUTP analogs.

The test system of another assay is Bst 2.0 DNA polymerase. As to the kind of experiment: Homopolymer assays of nucleotide analogs (Example 10). The class given is biochemical. The conditions noted are these: Natural Nucleotide T (TTP = 1); template oligo 332, primer 221L. As to the method:
A homopolymer assay was performed to investigate the effectiveness of E-dCTP and P-dUTP as nucleotide analogs of dCTP. 50 μl solutions containing a template nucleic acid molecule and primer and Bst 2.0 DNA polymerase are placed in a microplate reader and the fluorescence of the solution is measured in kinetic mode. A fluorescein attached to an oligonucleotide (indicated with a * in FIG. 7) was quenched in the substrate due to the proximity of complementary G bases. Addition of dCTP and/or dCTP analogs causes extension of the 3′ end of the primer, formation of double-stranded DNA, and unquenching of the fluorescein. The fluorescence increases with the addition of multiple nucleotides.
Additional homopolymer assays were performed according to the procedure outlined in Example 8 using different nucleotides and nucleotide analogs.
To test for dUTP or TTP incorporation, oligo 332 was used as a template and oligo 221L was used as a primer. To test for dCTP incorporation, oligo 333 was used as a template and oligo 221L was used as a primer. To test for dGTP incorporation, oligo 334 was used as a template and oligo 221L was used as a primer. To test for dATP incorporation, hairpin oligo 221 was used as both a primer and template.

The subject of the next assay is DNA polymerase. To be noted: for peak height (red fluorescence on the gel): dUTP* only (Fr = 1.0) or dUTP*/named dUTP^0.

For `Cc1cn([C@H]2C[C@H](O)[C@@H](COP(=O)(O)OP(=O)(O)OP(=O)(O)O)O2)c(=O)[nH]c1=O` [TTP, thymidine triphosphate, reference compound], the “CE product peaks of one base extension in competition with dUTP*” value in the assay with Bst DNA polymerase v.2.0 [1] (5 micromolar, 40 s at 50° C.) was “yields only a Pr-T peak”. For the same molecule, in the assay on Bst DNA polymerase v.2.0 [1] (beads before stripping), the “flow cytometry signal of one base extension in competition with dUTP*” value is “relatively low”. In addition, the Apparent fraction in the assay on Bst DNA polymerase v.2.0 [2] (molar fraction dUTP* 0.05) is 0.058; in the assay on Bst DNA polymerase v.2.0 [2] (molar fraction dUTP* 0.5), 0.42. Further, the Red signal in the assay with Bst DNA polymerase v.2.0 [2] (molar fraction dUTP* 0.05, rest the named dUTP^0) is on record as 2,900; in the assay on Bst DNA polymerase v.2.0 [2] (molar fraction dUTP* 0.5, rest the named dUTP^0), 21,000. The Tolerance is on record as 1.2 in the assay with Bst DNA polymerase v.2.0 [2] (molar fraction dUTP* 0.05) and 0.8 in the assay with Bst DNA polymerase v.2.0 [2] (molar fraction dUTP* 0.5). In addition, the “Relative Rate in Homopolymer Assay” value in the assay with Bst 2.0 DNA polymerase worked out at 1. The “Norm. (ratio of peak height dUTP*/dUTP^0 to Fr=1.0)” value in the assay on DNA polymerase (Peak 1) is recorded as 1.1; with DNA polymerase (Peak 2) it was 1.4; in the assay on DNA polymerase (Peak 3), 1.0; with DNA polymerase (Peak 4), 1.2; in the assay on DNA polymerase (Peak 5) it was 1.7. The “peak height (red fluorescence on the gel)” value was determined as 48 with DNA polymerase (Peak 1 (primer)); 56 with DNA polymerase (Peak 2 (primer)); 25 with DNA polymerase (Peak 3 (primer)); 38 with DNA polymerase (Peak 4 (primer)); 38 in the assay with DNA polymerase (Peak 5 (primer)). Moreover, the “context C=(Maximum signal−minimum signal)/(average signal)” value in the assay on DNA polymerase (five primers, gel assay with dUTP*) is listed as 0.54.
